# Source: ChEMBL document CHEMBL1124317, “Rationale for the synthesis and preliminary biological evaluation of highly active new antitumor nitrosoureido sugars” (J Med Chem, 1989)
# Tests used:
# Type in all cases: functional
# [1] = Ratio of mice died to that of mice treated with 20 mg/kg of compound in olive oil intraperitoneally with L1210 leukemia tumor; 0/15; settings: route intraperitoneal
# [2] = tested on: Mus musculus; test: Median survival time of the non surviving mice; treated with 20 mg/kg of compound in olive oil to mice with B16 Melanocarcinoma; 23-45
# [3] = tested on: Mus musculus; test: Anti tumor activity in olive oil when treated to mice with L1210 leukemia with 20 mg/kg dose of compound intraperitoneally was expressed as percent of treated to control (T/C %); settings: route intraperitoneal
# [4] = tested on: Mus musculus; test: Median survival time of the non surviving mice; treated with 20 mg/kg of compound in olive oil to mice with Lewis lung; 21-41
# [5] = tested on: Mus musculus; test: The number of L1210 Leukemia mice survived after 30 days with compound in olive oil injected by a dose of 20 mg/kg intraperitoneally; 4/15; settings: route intraperitoneal
# [6] = tested on: Mus musculus; test: The number of B16 melanocarcinoma mice survived after 30 days with compound in olive oil injected by a dose of 20 mg/kg intraperitoneally; 9/20; settings: route intraperitoneal
# [7] = tested on: Mus musculus; test: Anti tumor activity in olive oil when treated to mice with Lewis lung with 20 mg/kg dose of compound intraperitoneally was expressed as percent of treated to control (T/C %); settings: route intraperitoneal
# [8] = tested on: Mus musculus; test: Anti tumor activity in olive oil when treated to mice with B16 melanocarcinoma with 20 mg/kg dose of compound intraperitoneally was expressed as percent of treated to control (T/C %); settings: route intraperitoneal
# [9] = Ratio of mice died to that of mice treated with 20 mg/kg of compound in olive oil intraperitoneally with Lewis lung; 0/20; settings: route intraperitoneal
# [10] = Ratio of mice died to that of mice treated with 20 mg/kg of compound in olive oil intraperitoneally with B16 Melanocarcinoma; 0/20; settings: route intraperitoneal
# [11] = tested on: Mus musculus; test: The number of B16 melanocarcinoma mice survived after 60 days with compound in olive oil injected by a dose of 20 mg/kg intraperitoneally; 1/20; settings: route intraperitoneal
# [12] = tested on: Mus musculus; test: Median survival time of the non surviving mice; treated with 20 mg/kg of compound in olive oil to mice with L1210 leukemia tumor; 21-42
# [13] = tested on: Mus musculus; test: The number of Lewis lung mice survived after 30 days with compound in olive oil injected by a dose of 20 mg/kg intraperitoneally; 13/20; settings: route intraperitoneal
# [14] = tested on: Mus musculus; test: The number of Lewis lung mice survived after 60 days with compound in olive oil injected by a dose of 20 mg/kg intraperitoneally; 8/20; settings: route intraperitoneal
# [15] = tested on: Mus musculus; test: The number of L1210 Leukemia mice survived after 60 days with compound in olive oil injected by a dose of 20 mg/kg intraperitoneally; 3/15; settings: route intraperitoneal
# [16] = tested on: Mus musculus; test: Median survival time of the non surviving mice; treated with 0.625 mg/kg of compound to mice with L1210 leukemia; 10-11
# [17] = tested on: Mus musculus; test: Anti tumor activity l when treated to mice with L1210 leukemia with 2.5 mg/kg dose of compound intraperitoneally was expressed as percent of treated to control (T/C %); settings: route intraperitoneal
# [18] = tested on: Mus musculus; test: The number of L1210 leukemia mice survived after 30 days with compound in aqueous solution injected by a dose of 5 mg/kg intraperitoneally; 7/10; settings: route intraperitoneal
# [19] = tested on: Mus musculus; test: Median survival time of the non surviving mice; treated with 2.5 mg/kg of compound to mice with L1210 leukemia; 17-25
# [20] = tested on: Mus musculus; test: The number of L1210 leukemia mice survived after 30 days with compound in aqueous solution injected by a dose of 10 mg/kg intraperitoneally; 0/10; settings: route intraperitoneal
# [21] = Number of mice died/no of mice treated with 5 mg/kg of compound in aqueous solution intraperitoneally with L1210 leukemia; 0/10; settings: route intraperitoneal
# [22] = Mortality range of the mice with L1210 leukemia treated with 0.625 mg/kg of dose intra peritoneally with no of mice survived/no of mice treated; 0/8
# [23] = tested on: Mus musculus; test: Median survival time of the non surviving mice; treated with 5 mg/kg of compound to mice with L1210 leukemia; 43-54
# [24] = tested on: Mus musculus; test: The number of L1210 leukemia mice survived after 30 days with compound injected by a dose of 1.25 mg/kg intraperitoneally; 0/8; settings: route intraperitoneal
# [25] = tested on: Mus musculus; test: Mortality range of the mice with L1210 leukemia treated with 2.5 mg/kg of dose intraperitoneally with no of mice survived/no of mice treated; 0/8; settings: route intraperitoneal
# [26] = Mortality range of the mice with L1210 leukemia treated with 1.25 mg/kg of dose intraperitoneally with no of mice survived/no of mice treated; 0/8; settings: route intraperitoneal
# [27] = tested on: Mus musculus; test: The number of L1210 leukemia mice survived after 60 days with compound in aqueous solution injected by a dose of 10 mg/kg intraperitoneally; 0/10; settings: route intraperitoneal
# [28] = tested on: Mus musculus; test: The number of L1210 leukemia mice survived after 30 days with compound injected by a dose of 0.625 mg/kg intraperitoneally; 0/8; settings: route intraperitoneal
# [29] = tested on: Mus musculus; test: Anti tumor activity l when treated to mice with L1210 leukemia with 0.625 mg/kg dose of compound intraperitoneally was expressed as percent of treated to control (T/C %); settings: route intraperitoneal
# [30] = Number of mice died/no of mice treated with 10 mg/kg of compound in aqueous solution intraperitoneally with L1210 leukemia; 1/10; settings: route intraperitoneal
# [31] = tested on: Mus musculus; test: Anti tumor activity l when treated to mice with L1210 leukemia with 5 mg/kg dose of compound intraperitoneally was expressed as percent of treated to control (T/C %); settings: route intraperitoneal
# [32] = tested on: Mus musculus; test: Median survival time of the non surviving mice; treated with 10 mg/kg of compound in olive oil to mice with L1210 leukemia; 15-25
# [33] = tested on: Mus musculus; test: Anti tumor activity in olive oil when treated to mice with L1210 leukemia with 5 mg/kg dose of compound intraperitoneally was expressed as percent of treated to control (T/C %); settings: route intraperitoneal
# [34] = Mortality range of the mice with L1210 leukemia treated with 5 mg/kg of dose intraperitoneally with no of mice survived/no of mice treated; 0/8; settings: route intraperitoneal
# [35] = tested on: Mus musculus; test: The number of L1210 leukemia mice survived after 60 days with compound in aqueous solution injected by a dose of 5 mg/kg intraperitoneally; 4/10; settings: route intraperitoneal
# [36] = tested on: Mus musculus; test: The number of L1210 leukemia mice survived after 30 days with compound injected by a dose of 5 mg/kg intraperitoneally; 8/8; settings: route intraperitoneal
# [37] = tested on: Mus musculus; test: Median survival time of the non surviving mice; treated with 1.25 mg/kg of compound to mice with L1210 leukemia; 11-15
# [38] = tested on: Mus musculus; test: The number of L1210 leukemia mice survived after 30 days with compound injected by a dose of 2.5 mg/kg intraperitoneally; 0/8; settings: route intraperitoneal
# [39] = tested on: Mus musculus; test: Anti tumor activity in olive oil when treated to mice with L1210 leukemia with 10 mg/kg dose of compound intraperitoneally was expressed as percent of treated to control (T/C %); settings: route intraperitoneal
# [40] = tested on: Mus musculus; test: Median survival time of the non surviving mice; treated with 5 mg/kg of compound in olive oil to mice with L1210 leukemia; 23-49
# [41] = tested on: Mus musculus; test: The number of L1210 leukemia mice survived after 60 days with compound injected by a dose of 5 mg/kg intraperitoneally; 4/8; settings: route intraperitoneal
# [42] = tested on: Mus musculus; test: Anti tumor activity l when treated to mice with L1210 leukemia with 1.25 mg/kg dose of compound intraperitoneally was expressed as percent of treated to control (T/C %); settings: route intraperitoneal
# [43] = tested on: Mus musculus; test: The number of L1210 Leukemia mice survived after 60 days with compound in olive oil injected by a dose of 20 mg/kg intraperitoneally; 15/15; settings: route intraperitoneal
# [44] = tested on: Mus musculus; test: The number of L1210 leukemia mice survived after 30 days with compound in aqueous solution injected by a dose of 20 mg/kg intraperitoneally; 0/10; settings: route intraperitoneal
# [45] = tested on: Mus musculus; test: Anti tumor activity in olive oil when treated to mice with B16 melanocarcinoma with 5 mg/kg dose of compound intraperitoneally was expressed as percent of treated to control (T/C %); settings: route intraperitoneal
# [46] = Ratio of mice died to that of mice treated with 20 mg/kg of compound in aqueous solution intraperitoneally with L1210 leukemia; 0/10; settings: route intraperitoneal
# [47] = tested on: Mus musculus; test: The number of B16 melanocarcinoma mice survived after 30 days with compound in olive oil injected by a dose of 20 mg/kg intraperitoneally; 14/20; settings: route intraperitoneal
# [48] = tested on: Mus musculus; test: Anti tumor activity in olive oil when treated to mice with L1210 leukemia with 5 mg/kg dose of compound intraperitoneally was expressed as percent of treated to control; settings: route intraperitoneal
# [49] = tested on: Mus musculus; test: Median survival time of the non surviving mice; treated with 5 mg/kg of compound in olive oil to mice with B16 Melanocarcinoma; 13-51
# [50] = tested on: Mus musculus; test: Median survival time of the non surviving mice; treated with 5 mg/kg of compound in olive oil to mice with L1210 leukemia and the value is mentioned in braces is range
# [51] = tested on: Mus musculus; test: The number of L1210 leukemia mice survived after 60 days with compound in aqueous solution injected by a dose of 20 mg/kg intraperitoneally; 0/10; settings: route intraperitoneal
# [52] = tested on: Mus musculus; test: The number of Lewis lung mice survived after 30 days with compound in olive oil injected by a dose of 20 mg/kg intraperitoneally; 20/20; settings: route intraperitoneal
# [53] = tested on: Mus musculus; test: The number of Lewis lung mice survived after 60 days with compound in olive oil injected by a dose of 20 mg/kg intraperitoneally; 15/20; settings: route intraperitoneal
# [54] = tested on: Mus musculus; test: The number of L1210 Leukemia mice survived after 30 days with compound in olive oil injected by a dose of 20 mg/kg intraperitoneally; 15/15; settings: route intraperitoneal
structure (smiles),measurement,setting,value
COC1CC(O)C(O)C(CNC(=O)N(CCCl)N=O)O1 (stereo not drawn),Ratio,[1],0
same,Median survival time,[2],30
same,T/C,[3],263%
same,Median survival time,[4],39
same,Survivals,[5],4
same,Survivals,[6],9
same,T/C,[7],313%
same,T/C,[8],215%
same,Ratio,[9],0
same,Ratio,[10],0
same,Survivals,[11],1
same,Median survival time,[12],23.5
same,Survivals,[13],13
same,Survivals,[14],8
same,Survivals,[15],3
CO[C@H]1C[C@@H](NC(=O)N(CCCl)N=O)[C@H](O)[C@@H](C)O1,Median survival time,[16],10.6
same,T/C,[17],244%
same,Survivals,[18],7
same,Median survival time,[19],21.9
same,Survivals,[20],0
same,Ratio,[21],0
same,Ratio,[22],0
same,Median survival time,[23],48.5
same,Survivals,[24],0
same,Mortality ratio,[25],0
same,Ratio,[26],0
same,Survivals,[27],0
same,Survivals,[28],0
same,T/C,[29],118%
same,Ratio,[30],1
same,T/C,[31],539%
same,Median survival time,[32],18.75
same,T/C,[33],519%
same,Ratio,[34],0
same,Survivals,[35],4
same,Survivals,[36],8
same,Median survival time,[37],12.9
same,Survivals,[38],0
same,T/C,[39],198%
same,Median survival time,[40],49
same,Survivals,[41],4
same,T/C,[42],144%
CO[C@@H]1C[C@@H](NC(=O)N(CCCl)N=O)[C@H](O)[C@@H](C)O1,Survivals,[43],15
same,Survivals,[44],0
same,Ratio,[1],0
same,T/C,[45],260%
same,Ratio,[46],0
same,Survivals,[47],14
same,T/C,[48],150%
same,Ratio,[9],0
same,Ratio,[10],0
same,Survivals,[11],1
same,Median survival time,[49],36.25
same,Median survival time,[50],14.2
same,Survivals,[51],0
same,Survivals,[52],20
same,Survivals,[53],15
same,Survivals,[54],15
